Starred links: 1 amine or outer side, 2 acyl side, 3 side chain; linkers in the order of their positions; H or OH if unused. Positions of bridges follow the written chain, without caps; N, C: chain ends. Non-standard residues stand in square brackets, D forms with d. Residues, ends and D or L forms follow the SMILES beside them. Phe(3,4,5-F3) = N[C@@H](Cc1cc(F)c(F)c(F)c1)C(=O)O; X12 = O=C([C@H](Cc1cc(Cl)c(F)c(Cl)c1)N[*:1])[*:2]; X14 = O=C([C@H](Cc1cc(F)c(F)c(Cl)c1)N[*:1])[*:2]; Phe(3,5-Cl2) = N[C@@H](Cc1cc(Cl)cc(Cl)c1)C(=O)O; X15 = O=C([C@H](Cc1ccc(Cl)c(F)c1)N[*:1])[*:2]; Pro(4R-NH2) = N[C@H]1CN[C@H](C(=O)O)C1; X11 = CC1(C)CC[C@H](C(=O)[*:2])N1[*:1]; d(cisHyp) = O=C(O)[C@H]1C[C@@H](O)CN1; NMeF = CN[C@@H](Cc1ccccc1)C(=O)O; NMeE = CN[C@@H](CCC(=O)O)C(=O)O; NMeNle = CCCC[C@H](NC)C(=O)O; Orn = NCCC[C@H](N)C(=O)O; Sar = CNCC(=O)O

One assay addresses T1, Human PD-L1/PD-1 (Homo sapiens, UniProt Q9NZQ7).
T1 construct: made in house; host or cells: HEK293T
Briefly: HTRF PD-1-Ig/PD-L1-His binding assay (human PD-L1). The settings on record: cluster symbol; read-out: HTRF IC50 cluster. The procedure, abridged:
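Interaction of Fc-tagged soluble PD-1 with His-tagged soluble PD-L1 is monitored by time-resolved FRET. Donor is europium cryptate anti-Ig (1 nM final) and acceptor is APC anti-His (20 nM final). Assay buffer is dPBS with 0.1% BSA and 0.05% Tween-20.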

In assay [1] the target is T2, LK35.2-hPD-L1 cells / PE-labeled PD-1-Ig (Homo sapiens, UniProt Q9NZQ7).
T2 construct: expressed in transfected cells; host or cells: LK35.2 mouse B cell line
T2 sequence (Q9NZQ7 19-290): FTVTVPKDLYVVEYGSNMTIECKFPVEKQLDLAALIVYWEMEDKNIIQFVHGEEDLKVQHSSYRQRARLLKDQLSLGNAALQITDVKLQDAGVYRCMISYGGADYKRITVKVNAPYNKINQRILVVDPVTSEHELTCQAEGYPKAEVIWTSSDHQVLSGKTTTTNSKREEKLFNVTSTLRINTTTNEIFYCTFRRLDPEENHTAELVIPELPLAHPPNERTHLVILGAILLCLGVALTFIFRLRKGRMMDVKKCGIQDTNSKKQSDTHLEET
The assay can be described thus: LK35.2-hPD-L1 cell binding high-content screening assay. It counts as cell-based. To be noted: cluster symbol; cell line of CBA not given (LK35.2-hPD-L1 or 293T-hPD-L1); read-out: CBA IC50 cluster. Put shortly:
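Mouse LK35.2 B cells stably overexpressing human PD-L1 were cultured overnight in RPMI with 10% FCS, then given compound and PE-labeled human PD-1-Ig (1 nM final) for 1 h at 37 °C. After three dPBS washes, bound fluorescence was quantified by high-content imaging.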

T1 sequence (Q9NZQ7 with tags, fused parts or gaps): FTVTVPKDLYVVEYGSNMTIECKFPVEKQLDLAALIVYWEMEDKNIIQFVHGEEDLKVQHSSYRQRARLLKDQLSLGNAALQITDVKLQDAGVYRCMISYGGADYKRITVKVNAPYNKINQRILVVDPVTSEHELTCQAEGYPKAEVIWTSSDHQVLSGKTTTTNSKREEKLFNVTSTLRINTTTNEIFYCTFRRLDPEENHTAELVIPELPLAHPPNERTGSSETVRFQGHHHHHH

For `CCCC[C@H]1C(=O)N(C)CC(=O)N[C@@H](CC(=O)O)C(=O)N[C@@H](C(C)C)C(=O)N(C)[C@@H](Cc2ccccc2)C(=O)N2CCC[C@H]2C(=O)N2CCC[C@@H]2C(=O)N[C@@H](Cc2c[nH]c3ccccc23)C(=O)N[C@@H](Cc2ccc(O)cc2)C(=O)N[C@@H](CC(C)C)C(=O)N[C@H](C(=O)NCC(N)=O)CSCC(=O)N[C@@H](Cc2ccccc2)C(=O)N(C)[C@@H](Cc2ccccc2)C(=O)N1C` [Example 3176] (HELM PEPTIDE1{[O=C(C[*:3])[*:2]].F.[meF].[CCCC[C@@H](C(=O)[*:2])N(C)[*:1]].[Sar].D.V.[meF].P.[dP].W.Y.L.C.G.[am]}$PEPTIDE1,PEPTIDE1,1:R3-14:R3$$$V2.0), the values for the IC50 (on Human PD-L1/PD-1; in assay [1]) were over 30.5 nM and over 74.3 nM, respectively.
For `CCCC[C@H]1C(=O)N(C)CC(=O)N[C@@H](CC(=O)O)C(=O)N[C@@H](C(C)C)C(=O)N(C)[C@@H](Cc2ccccc2)C(=O)N2C[C@H](O)C[C@H]2C(=O)N2CCC[C@@H]2C(=O)N[C@@H](Cc2c[nH]c3ccccc23)C(=O)N[C@@H](Cc2ccc(O)cc2)C(=O)N[C@@H](CC(C)C)C(=O)N[C@H](C(=O)NCC(N)=O)CSCC(=O)N[C@@H](Cc2ccccc2)C(=O)N(C)[C@@H](Cc2ccccc2)C(=O)N1C` [Example 3177] (HELM PEPTIDE1{[O=C(C[*:3])[*:2]].F.[meF].[CCCC[C@@H](C(=O)[*:2])N(C)[*:1]].[Sar].D.V.[meF].[Hyp].[dP].W.Y.L.C.G.[am]}$PEPTIDE1,PEPTIDE1,1:R3-14:R3$$$V2.0) the same measures were over 30.5 nM and over 74.3 nM.
For `CCCC[C@H]1C(=O)N(C)CC(=O)N[C@@H](CC(=O)O)C(=O)N[C@@H](C(C)C)C(=O)N(C)[C@@H](Cc2ccccc2)C(=O)N2C[C@H](N)C[C@H]2C(=O)N2CCC[C@@H]2C(=O)N[C@@H](Cc2c[nH]c3ccccc23)C(=O)N[C@@H](Cc2ccc(O)cc2)C(=O)N[C@@H](CC(C)C)C(=O)N[C@H](C(=O)NCC(N)=O)CSCC(=O)N[C@@H](Cc2ccccc2)C(=O)N(C)[C@@H](Cc2ccccc2)C(=O)N1C` [Example 3178] ({CH2CO}-F[NMeF][NMeNle][Sar]DV[NMeF][Pro(4R-NH2)][dP]WYLCG-NH2; thioether N-13), the IC50 fell in the range of 6.76 to 30.3 nM at Human PD-L1/PD-1 and 4.78 to 72.9 nM in assay [1].
For `CCCC[C@H]1C(=O)N(C)CC(=O)N[C@@H](CC(=O)O)C(=O)N[C@@H](C(C)C)C(=O)N(C)[C@@H](Cc2ccccc2)C(=O)N[C@@H](Cc2ccc(O)cc2)C(=O)N(C)CC(=O)N[C@@H](Cc2c[nH]c3ccccc23)C(=O)N[C@@H](Cc2ccc(O)cc2)C(=O)N[C@@H](CC(C)C)C(=O)N[C@H](C(=O)NCC(N)=O)CSCC(=O)N[C@@H](Cc2cc(Cl)cc(Cl)c2)C(=O)N(C)[C@@H](Cc2ccccc2)C(=O)N1C` [Example 3179] ({CH2CO}-[Phe(3,5-Cl2)][NMeF][NMeNle][Sar]DV[NMeF]Y[Sar]WYLCG-NH2; thioether N-13) the same measures were over 30.5 nM and 4.78 to 72.9 nM.
In the case of `CCCC[C@H]1C(=O)N(C)CC(=O)N[C@@H](CC(=O)O)C(=O)N[C@@H](C(C)C)C(=O)N(C)[C@@H](Cc2ccccc2)C(=O)N[C@@H](Cc2ccc(O)cc2)C(=O)N(C)CC(=O)N[C@@H](Cc2c[nH]c3ccccc23)C(=O)N[C@@H](Cc2ccc(O)cc2)C(=O)N[C@@H](CC(C)C)C(=O)N[C@H](C(=O)NCC(N)=O)CSCC(=O)N[C@@H](Cc2ccc(Cl)c(F)c2)C(=O)N(C)[C@@H](Cc2ccccc2)C(=O)N1C` [Example 3180] ({CH2CO}-[X15][NMeF][NMeNle][Sar]DV[NMeF]Y[Sar]WYLCG-NH2; thioether N-13), the IC50 fell in the range of 6.76 to 30.3 nM at Human PD-L1/PD-1 and 0.158 to 4.71 nM in assay [1].
The corresponding values for `CCCC[C@H]1C(=O)N(C)CC(=O)N[C@@H](CC(N)=O)C(=O)N[C@@H](C(C)C)C(=O)N(C)[C@@H](Cc2ccccc2)C(=O)N[C@@H](Cc2ccc(O)cc2)C(=O)N(C)CC(=O)N[C@@H](Cc2c[nH]c3ccccc23)C(=O)N[C@@H](Cc2ccc(O)cc2)C(=O)N[C@@H](CCCN)C(=O)N[C@H](C(=O)NCC(N)=O)CSCC(=O)N[C@@H](Cc2cc(F)c(F)c(F)c2)C(=O)N(C)[C@@H](Cc2ccccc2)C(=O)N1C` [Example 3181] ({CH2CO}-[Phe(3,4,5-F3)][NMeF][NMeNle][Sar]NV[NMeF]Y[Sar]WY[Orn]CG-NH2; thioether N-13) are 0.385 to 6.74 nM and 0.158 to 4.71 nM.
Take `CCCC[C@H]1C(=O)N2C[C@H](O)C[C@@H]2C(=O)N[C@@H](CC(=O)O)C(=O)N[C@@H](C(C)C)C(=O)N(C)[C@@H](Cc2ccccc2)C(=O)N[C@@H](Cc2ccc(O)cc2)C(=O)N(C)[C@@H](CCC(=O)O)C(=O)N[C@@H](Cc2c[nH]c3ccccc23)C(=O)N[C@@H](Cc2ccc(O)cc2)C(=O)N[C@@H](CC(C)C)C(=O)N[C@H](C(=O)NCC(N)=O)CSCC(=O)N[C@@H](Cc2cc(F)c(F)c(F)c2)C(=O)N(C)[C@@H](Cc2ccccc2)C(=O)N1C` [Example 3182] ({CH2CO}-[Phe(3,4,5-F3)][NMeF][NMeNle][d(cisHyp)]DV[NMeF]Y[NMeE]WYLCG-NH2; thioether N-13): the concentration for half-maximal inhibition (IC50) is 0.385 to 6.74 nM on Human PD-L1/PD-1 and 0.158 to 4.71 nM in assay [1].
For `CCCC[C@H]1C(=O)N2C[C@H](O)C[C@@H]2C(=O)N[C@@H](CC(=O)O)C(=O)N[C@@H](C(C)C)C(=O)N(C)[C@@H](Cc2ccccc2)C(=O)N[C@@H](Cc2ccc(O)cc2)C(=O)N2CCC[C@@H]2C(=O)N[C@@H](Cc2c[nH]c3ccccc23)C(=O)N[C@@H](Cc2ccc(O)cc2)C(=O)N[C@@H](CC(C)C)C(=O)N[C@H](C(=O)NCC(N)=O)CSCC(=O)N[C@@H](Cc2cc(F)c(F)c(F)c2)C(=O)N(C)[C@@H](Cc2ccccc2)C(=O)N1C` [Example 3183] ({CH2CO}-[Phe(3,4,5-F3)][NMeF][NMeNle][d(cisHyp)]DV[NMeF]Y[dP]WYLCG-NH2; thioether N-13) the same measures were 0.385 to 6.74 nM and 0.158 to 4.71 nM.
For the compound `CCCC[C@H]1C(=O)N(C)CC(=O)N[C@@H](CC(=O)O)C(=O)N[C@@H](C(C)C)C(=O)N(C)[C@@H](Cc2ccccc2)C(=O)N[C@@H](Cc2ccc(O)cc2)C(=O)N2[C@H](CCC2(C)C)C(=O)N[C@@H](Cc2c[nH]c3ccccc23)C(=O)N[C@@H](Cc2ccc(O)cc2)C(=O)N[C@@H](CC(C)C)C(=O)N[C@H](C(=O)NCC(N)=O)CSCC(=O)N[C@@H](Cc2ccccc2)C(=O)N(C)[C@@H](Cc2ccccc2)C(=O)N1C` [Example 3184] ({CH2CO}-F[NMeF][NMeNle][Sar]DV[NMeF]Y[X11]WYLCG-NH2; thioether N-13), the IC50 at Human PD-L1/PD-1 was over 30.5 nM; in assay [1], over 74.3 nM.
The corresponding values for `CCCC[C@H]1C(=O)N(C)CC(=O)N[C@@H](CC(=O)O)C(=O)N[C@@H](C(C)C)C(=O)N(C)[C@@H](Cc2ccccc2)C(=O)N[C@@H](Cc2ccc(O)cc2)C(=O)N(C)CC(=O)N[C@@H](Cc2c[nH]c3ccccc23)C(=O)N[C@@H](Cc2ccc(O)cc2)C(=O)N[C@@H](CC(C)C)C(=O)N[C@H](C(=O)NCC(N)=O)CSCC(=O)N[C@@H](Cc2cc(Cl)c(F)c(Cl)c2)C(=O)N(C)[C@@H](Cc2ccccc2)C(=O)N1C` [Example 3185] ({CH2CO}-[X12][NMeF][NMeNle][Sar]DV[NMeF]Y[Sar]WYLCG-NH2; thioether N-13) are 6.76 to 30.3 nM and 4.78 to 72.9 nM.
As to `CCCC[C@H]1C(=O)N(C)CC(=O)N[C@@H](CC(=O)O)C(=O)N[C@@H](C(C)C)C(=O)N(C)[C@@H](Cc2ccccc2)C(=O)N[C@@H](Cc2ccc(O)cc2)C(=O)N(C)CC(=O)N[C@@H](Cc2c[nH]c3ccccc23)C(=O)N[C@@H](Cc2ccc(O)cc2)C(=O)N[C@@H](CC(C)C)C(=O)N[C@H](C(=O)NCC(N)=O)CSCC(=O)N[C@@H](Cc2cc(F)c(F)c(Cl)c2)C(=O)N(C)[C@@H](Cc2ccccc2)C(=O)N1C` [Example 3186] ({CH2CO}-[X14][NMeF][NMeNle][Sar]DV[NMeF]Y[Sar]WYLCG-NH2; thioether N-13), the IC50 is 6.76 to 30.3 nM at Human PD-L1/PD-1 and 0.158 to 4.71 nM in assay [1].
The corresponding values for `CCCC[C@H]1C(=O)N2CCC[C@@H]2C(=O)N[C@@H](CC(=O)O)C(=O)N[C@@H](C(C)C)C(=O)N(C)[C@@H](Cc2ccccc2)C(=O)N[C@@H](CCCCN)C(=O)N2CCC[C@@H]2C(=O)N[C@@H](Cc2c[nH]c3ccccc23)C(=O)N[C@@H](Cc2ccc(O)cc2)C(=O)N[C@@H](CC(C)C)C(=O)N[C@H](C(=O)NCC(N)=O)CSCC(=O)N[C@@H](Cc2ccccc2)C(=O)N(C)[C@@H](Cc2ccccc2)C(=O)N1C` [Example 3187] (HELM PEPTIDE1{[O=C(C[*:3])[*:2]].F.[meF].[CCCC[C@@H](C(=O)[*:2])N(C)[*:1]].[dP].D.V.[meF].K.[dP].W.Y.L.C.G.[am]}$PEPTIDE1,PEPTIDE1,1:R3-14:R3$$$V2.0) are 6.76 to 30.3 nM and 0.158 to 4.71 nM.
On to `CCCC[C@H]1C(=O)N2CCC[C@@H]2C(=O)N[C@@H](CC(=O)O)C(=O)N[C@@H](C(C)C)C(=O)N(C)[C@@H](Cc2ccccc2)C(=O)N[C@@H](CCCN)C(=O)N2CCC[C@@H]2C(=O)N[C@@H](Cc2c[nH]c3ccccc23)C(=O)N[C@@H](Cc2ccc(O)cc2)C(=O)N[C@@H](CC(C)C)C(=O)N[C@H](C(=O)NCC(N)=O)CSCC(=O)N[C@@H](Cc2ccccc2)C(=O)N(C)[C@@H](Cc2ccccc2)C(=O)N1C` [Example 3188] (HELM PEPTIDE1{[O=C(C[*:3])[*:2]].F.[meF].[CCCC[C@@H](C(=O)[*:2])N(C)[*:1]].[dP].D.V.[meF].[Orn].[dP].W.Y.L.C.G.[am]}$PEPTIDE1,PEPTIDE1,1:R3-14:R3$$$V2.0), for which the IC50 lay in the range of 6.76 to 30.3 nM on Human PD-L1/PD-1 and 0.158 to 4.71 nM in assay [1].

These data come from US9850283B2, “Macrocyclic inhibitors of the PD-1/PD-L1 and CD80(B7-1)/PD-L1 protein/protein interactions” (BRISTOL-MYERS SQUIBB COMPANY, priority 2013, dated 2017).
